This note sets out measurements from patent US6548499B1, “Substituted quinoxaline derivatives as interleukin-8 receptor antagonists” (Millennium Pharmaceuticals, Inc., priority 1998, dated 2003).

A word on the IC50: it is the midpoint of a concentration-inhibition curve. Low readings indicate greater potency, high ones weaker potency. For orientation: melting point means the temperature, or range, at which the solid turns liquid.

The first data set deals with human neutrophils. The experiment in a line: IL-8 chemotaxis assay. Particulars: Neutrophil, 0.5 h; freshly isolated human neutrophils, rhIL-8 as chemoattractant, 30 minutes at 37° C. Type of data set: cell-based. On the procedure: Compounds of Formula I and II were evaluated for their effect on chemotaxis using methodology known in the art, e.g., Carr M. W., Roth S. J., Luther E., Rose S. S., and Springer T. A., “Monocyte chemoattractant protein 1 acts as a T-lymphocyte chemoattractant.” Proc. Natl. Acad Sci. USA, 1994;91:3652; Qin S., Larosa G., Campbell J. J. et al., “Expression of MCP-1 and IL-8 receptors on subset on T-cells, and correlation with transendothelial chemotactic potential,” Eur. J. Immu., 1996;26:640.
Briefly, freshly isolated human neutrophils were resuspended in chemotaxis buffer, which is made of one part of RPMI 1640 medium, one part of Medium 199, and 0.5% BSA. The cells were incubated with or without compounds for 5 minutes. Similarly, rhIL-8 was incubated in a separate plate, then transferred into lower chambers of chemotaxis plate. Neutrophils were added onto the top chamber. The plates were incubated at 37° C. for 30 minutes. The top chamber was then removed and the plate frozen at −80° C. for 30 minutes. After thawing, migrated cells were stained with Cytoquant Cell Proliferation Assay Kit (Molecular Probes No. C-7026) and quantitated by reading the plate on a fluorescent plate reader.
`CN(C)CCCNc1nc2cc(Cl)c(Cl)cc2nc1-c1ccco1` [Example 14, N′-(6,7-Dichloro-3-furan-2-yl-quinoxalin-2-yl)-N,N-dimethyl-propane-1,3-diamine] registered an IC50 of 1.8 µM.

The compound `CCN(CC)CCCCNc1nc2cc(Cl)c(Cl)cc2nc1-c1ccc(C)s1` [Example 28, N′-[6,7-Dichloro-3-(5-methyl-thiophen-2-yl)quinoxalin-2-yl]-N,N-diethyl-butane-1,4-diamine] came in with an IC50 of 0.4 µM.

Compound `CCN(CC)CCCCNc1nc2cc(Cl)c(Cl)cc2nc1-c1ccc(-c2cccs2)s1` [Example 34, N′-(3-[2,2′]Bithiophenyl-5-yl-6,7-dichloro-quinoxalin-2-yl)-N,N-diethyl-butane-1,4-diamine] gave an IC50 of 0.08 µM.

The compound `CCN(CC)CCCCNc1nc2cc(Cl)c(Cl)cc2nc1-c1cc2ccccc2s1` [Example 25, N′(3-Benzo[b]thiophen-2-yl-6,7-dichloro-quinoxalin-2-yl)-N,N-4-diethyl-butane-1,4-diamine] had an IC50 of 0.31 µM.

`CN(C)CCCNc1nc2cc(Cl)c(Cl)cc2nc1-c1cccs1` [Example 15, N′-(6,7-Dichloro-3-thiophen-2-yl-quinoxalin-2-yl)-N,N-dimethyl-propane-1,3-diamine] came in with an IC50 of 0.32 µM.

Still in this data set, the particulars now being: freshly isolated human neutrophils, rhIL-8 as chemoattractant, 30 minutes at 37° C.
With “6-Chloro-N-[4-(dimethylamino)cyclohexyl]-3-(2-pyridinyl)-2-quinoxalinamine and 7-Chloro-N-[4-(dimethylamino)cyclohexyl]-3-(2-pyridinyl)-2-quinoxalinamine, Dihydrochloride, Hydrate [Example 1]”, the 50% inhibitory concentration (IC50) turned out to be 0.89 µM.

Another data set concerns human neutrophils. The experiment in a line: IL-8 calcium flux assay. Type of data set: cell-based. The settings on record: @ 11 μM; human neutrophils stimulated with human IL-8. How it is done: Compounds of Formula I and II were evaluated for their effect on calcium flux using methodology known in the art, e.g., Neote K., DiGregorio D., Mak J. Y., Horuk R., and Schall T. J., “Molecular cloning, functional expression, and signaling characteristics of a C—C chemokine receptor,” Cell, 1993;72:415.
Briefly, human neutrophils were incubated with the fluorescence dye FLUO-3 for 1 hour. The cells were washed after this loading period, resuspended in HANKs buffer, and loaded into a 96-well plate. Compound was added to each well. After a 2-minute incubation period, the cells were stimulated with human IL-8 and the calcium flux response recorded and quantified.
On to “6-Chloro-N-[4-(dimethylamino)cyclohexyl]-3-(2-pyridinyl)-2-quinoxalinamine and 7-Chloro-N-[4-(dimethylamino)cyclohexyl]-3-(2-pyridinyl)-2-quinoxalinamine, Dihydrochloride, Hydrate [Example 1]”, for which the “IL-8 Ca+2 Flux % Inhibition (μM)” value came out at 34% @ 11.

Tested on in another data set: not given
Assay: not given
Settings: not given
`CCCc1ccc(-c2nc3cc(Cl)c(Cl)cc3nc2NCCCCN(CC)CC)s1.Cl` gave a melting point of 165 to 167 °C.

The compound `CCN(CC)CCCCNc1nc2cc(Cl)c(Cl)cc2nc1-c1cc2ccccc2[nH]1.Cl` returned a melting point of 145 to 147 °C.

The compound `CCN(CC)CCCCNc1nc2cc(Cl)c(Cl)cc2nc1-c1cccc2c1sc1ccccc12.Cl` had a melting point of 134 to 136 °C.

For the compound `c1ccc(-c2nc3ccccc3nc2NCCCn2ccnc2)nc1` [Example 3, N-[3-(1H-Imidazol-1-yl)propyl]-3-(2-pyridinyl)-2-quinoxalinamine], the melting point fell in the range of 85 to 86 °C.

As for `CCN(CC)CCCCNc1nc2cc(Cl)c(Cl)cc2nc1-c1cc2ccccc2o1.Cl`, the melting point was 220 °C.

As to `CCN(CC)CCCCNc1nc2cc(Cl)c(Cl)cc2nc1-c1ccc(Cl)s1.Cl`, the melting point fell in the range of 98 to 100 °C.

`Cl.N[C@H]1CC[C@H](Nc2nc3cc(Cl)c(Cl)cc3nc2-c2ccccn2)CC1`: the melting point is 280 to 282 °C (dec.).

For the compound `CN(C)C1CCC(Nc2nc3cc(Cl)c(Cl)cc3nc2-c2ccccn2)CC1.Cl` (stereo not drawn), the melting point was 180 to 182 °C.

With `Cl.Clc1cc2nc(-c3ccccn3)c(N3CCC(N4CCCCC4)CC3)nc2cc1Cl`, the melting point is 275 to 277 °C (dec.).

In turn, `CC(=O)N(C)c1ccc(Nc2nc3ccccc3nc2-c2ccccn2)cc1` [Example 9, N-Methyl-N-[4-[[3-(2-pyridinyl)-2-quinoxalinyl]amino]phenyl]-acetamide] had a melting point of 165 to 166 °C.

`c1ccc(-c2nc3ccccc3nc2NC2CN3CCC2CC3)nc1` (stereo not drawn) showed a melting point of 63 to 65 °C.

`CN1CCCC1CCNc1nc2ccccc2nc1-c1ccccn1` (stereo not drawn) [Example 4, N-[2-(1-Methyl-2-pyrrolidinyl)ethyl]-3-(2-pyridinyl)-2-quinoxalinamine] had a melting point of 186 to 188 °C.

With `CN(C)CCCCNc1nc2cc(F)c(F)cc2nc1-c1cccs1` [Example 17, N′-(6,7-Difluoro-3-thiophen-2-yl-quinoxalin-2-yl)-N,N-dimethyl-butane-1,4-diamine], the melting point was 175 to 177 °C.

As to `c1ccc(-c2nc3ccccc3nc2NCc2ccncc2)nc1` [Example 7, N-(4-Pyridinylmethyl)-3-(2-pyridinyl)-2-quinoxalinamine], the melting point fell in the range of 142 to 144 °C.

On to `CN(C)c1ccc(Nc2nc3ccccc3nc2-c2ccccn2)cc1` [Example 8, N-[4-(Dimethylamino)phenyl]-3-(2-pyridinyl)-2-quinoxalinamine], for which the melting point was 169 to 170 °C.

As for `c1ccc(-c2nc3ccccc3nc2Nc2ccc(N3CCOCC3)cc2)nc1` [Example 6, N-[4-(4-Morpholinyl)phenyl]-3-(2-pyridinyl)-2-quinoxalinamine], the melting point fell in the range of 205 to 206 °C.

For `CCN(CC)Cc1ccc(Nc2nc3cc(Cl)c(Cl)cc3nc2-c2ccccn2)cc1` [Example 13, (6,7-Dichloro-3-pyridin-2-yl-quinoxalin-2-yl)-(4-diethylaminomethyl-phenyl)-amine], the melting point is 250 to 252 °C (dec.).
